Measurements published in publication PMC6272295, “In Vitro Neuroprotective Activities of Compounds from Angelica shikokiana Makino” (Molecules, 2015).

Columns and labels:
[1] = system: neuro-2A cells; experiment: Protection against H2O2-induced neurotoxicity (MTT); type: cell-based, Mouse; conditions: for neuroprotection against H2O2-induced neurotoxicity (in words): 6.25-100 µM, H2O2 150 µM; for Protection against H2O2: summary Table 4
Protocol: Neuro-2A cell line was maintained in Eagle’s Minimum Essential medium supplemented with 10% fetal bovine serum, 1% of 100× antibiotic—antimitotic agents (containing penicillin and streptomycin) in a humid atmosphere of 5% (v/v) CO2 and 95% (v/v) air at 37 °C. Neuro-2A cells were plated in 96-well cell culture plates at a density of 3 × 10^4 cells/well for H2O2 and intracellular ROS assays and 2.5 × 10^3 cells/well for the Aβ25-35-assay.
Cell viability was determined by MTT reduction assay. Briefly, after treatment with isolated compounds, the media was replaced by fresh one after washing the cells with 100 µL PBS and 20 µL of MTT (5 mg/mL) was added to each well. After 4 h incubation at 37 °C, the state of cells was checked under microscope to confirm either cytotoxicity in H2O2 and Aβ25-35 wells or protection in positive controls and isolated compounds ones. The supernatants were aspirated carefully, and 150 µL of DMSO was added to each well to dissolve the dark blue formazan crystals. The absorbance was measured using a microplate reader at 570 nm.
H2O2 interacts with metals in the medium, producing highly cytotoxic hydroxyl radicals that induce neurotoxicity. So, active compounds are those that can scavenge free radicals and increase the cell viability. This assay was performed as previously described with slight modifications. Briefly, the concentration of H2O2 that decreased cell viability to about 50% was determined as follows: cells were cultured in a 96-well plate and after 24 h were further incubated with different concentrations of H2O2 (50, 100, 150, 200 µM) freshly prepared from 30% stock solution. After 24 h, cell viability was determined using the MTT reduction method. H2O2 at a concentration of 150 µM had the desired cytotoxicity and was used for the next step.

[2] = target: T1, Aβ25-35 (Homo sapiens, UniProt P05067); experiment: Thioflavin T assay of Aβ25-35 aggregation; type: biochemical; conditions: for effect on Th-T fluorescence (in words): 25-100 µM; for Decrease of ThT Fluorescence: summary Table 4; as to Decrease of ThT Fluorescence: key: +: Weak activity; ++: Strong activity
T1 construct: Aβ25-35 (25 µM) freshly prepared in PBS; purchased Sigma (St. Louis, MO, USA)
Protocol: Thioflavin T (ThT), abenzothiazole salt, is used to quantify misfolded protein aggregates and amyloid peptides. ThT is a non-fluorescent dye which, when it binds to amyloid rich aggregates, produces a fluorescent signal proportional to the quantity of amyloid aggregation. Aβ25-35 (25 µM) freshly prepared in PBS (50 mM, pH = 7.4) was incubated at 37 °C with or without different concentrations (100, 50, 25 µM) of isolated compounds at 37 °C and shaken at 300 rpm for 3 h. One hundred µL of each incubated sample was transferred to a 96-well plate, and five µM ThT was added. The ThT fluorescence was measured over 180 min at 10-min intervals at emission λ at 485 nm; and excitation λ at 442 nm using FlexStation 3 Microplate Reader (Molecular Devices, LLC, Sunnyvale, CA, USA), and data were managed by SoftMax Pro® 5.4.1 software. The samples were constantly shaken every 60 sec during the incubation. 1% DMSO and different concentrations of ECCG were taken as negative and positive controls, respectively. The area under the curve (AUC) was taken as indicative of fluorescence intensity. Fluorescence of samples and ThT without Aβ25-35 (sample blank) was detected and subtracted from the final AUC to prevent any interference.

O=c1c(O)c(-c2ccc(O)cc2)oc2cc(O)cc(O)c12 [Kaempferol (8), kaempferol]
neuroprotection against H2O2-induced neurotoxicity (in words) [1]: significant (p < 0.05) increase in cell viability at 100 µM | Protection against H2O2 [1]: + | effect on Th-T fluorescence (in words) [2]: weak activity | Decrease of ThT Fluorescence [2]: +

O=c1c(OC2OC(CO)C(O)C(O)C2O)c(-c2ccc(O)cc2)oc2cc(O)cc(O)c12 (stereo not drawn) [Kaempferol-3-O-glucoside (13), kaempferol-3-O-glucoside]
neuroprotection against H2O2-induced neurotoxicity (in words) [1]: significant (p < 0.05) increase in cell viability at 100 µM | Protection against H2O2 [1]: + | effect on Th-T fluorescence (in words) [2]: weak activity | Decrease of ThT Fluorescence [2]: +

CC(=O)OC1c2c(ccc3ccc(=O)oc23)OC(C)(C)C1OC(=O)C(C)(O)C(C)O (stereo not drawn) [Hyuganin E (6), hyuganin E]
neuroprotection against H2O2-induced neurotoxicity (in words) [1]: significant (p < 0.05) increase in cell viability at 100 µM | Protection against H2O2 [1]: + | effect on Th-T fluorescence (in words) [2]: decreased Th-T fluorescence in a dose-dependent manner | Decrease of ThT Fluorescence [2]: ++
